Assays:
[1] = system: relapsing-remitting multiple sclerosis (RRMS) patients; test: Correlation of NFL concentration with CE and T2 lesions and EDSS; type: in vivo, human; settings: after six months of treatment, all groups combined
From the text: Serum Nfl levels were investigated in longitudinal blood samples. The aims of this study include: • to explore the predictive value of blood NFL concentrations in patients treated with CHS-131 (also known as INT-131), • to determine the kinetics of the response to CHS-131, • to analyze NFL as a marker for the effectiveness of CHS-131 in relapsing-remitting multiple sclerosis (RRMS) patients, • to assess the value of NFL concentrations in comparing the effectiveness of CHS-131 with the effectiveness of placebo, • to correlate blood NFL with radiological and clinical outcome parameters (such as magnetic resonance imaging (MRI) (Gd+ lesion counts, T2 lesion volume), annualized relapse rate (ARR), brain atrophy and correlation with expanded disability status scale (EDSS), • to examine the prognostic value of NFL concentrations by stratification of patients related to disease activity, • to determine the risk of relapse or risk of disease progression, and • to evaluate NFL concentrations as a retreatment predictive biomarker. The correlation between NFL concentration and CE and T2 lesions was evaluated after six months of treatment with CHS-131 (all groups combined). […] The correlation between NFL concentration and EDSS was evaluated after six months of treatment with CHS-131 (all groups combined). […] Increased EDSS indicates increased disability, therefore lowering EDSS is considered effective treatment of multiple sclerosis.

[2] = system: neurofilament light chain (NFL); test: Blood NFL measurement by Simoa assay in RRMS patients given CHS-131; type: in vivo, human
Protocol: Capture monoclonal antibody (mAB) 47: 3 is buffer exchanged and diluted to 0.3 mg/mL 4×10^6 paramagnetic beads (Quanterix Corporation) are buffer exchanged and activated using 0.5 mg/mL 1-ethyl-3-(3-dimetylaminopropyl) carbodiimide (Quanterix), followed by a 30-minute incubation at room temperature (HulaMixer, Thermo Fischer Scientific). The diluted capture mAB 47:3 is conjugated with the washed and activated paramagnetic beads for a 2-hour incubation at room temperature on a mixer. After the incubation, the beads are washed three times using a magnetic separator and blocked. Next, the conjugated beads are suspended and stored at 4° C.
The Simoa assay is run on a Simoa HD-1 instrument (Quanterix) using a two-step Assay Neat 20 protocol. Briefly, 100 μL of calibrator/sample in Tris-buffered saline (TBS), 0.1% Tween 20, 1% milk powder, 400 μg/mL Heteroblock (Omega Biologicals), 25 μL conjugated beads in TBS, 0.1% Tween 20, 1% milk powder, 300 μg/mL Heteroblock, and 20 μL of mAB 2:1 (0.1 μg/mL in TBS, 0.1% Tween 20, 1% milk powder, 300 μg/mL Heteroblock) are incubated for 35 minutes 15 seconds (47 cadences with 1 cadence is 45 seconds). Next, the mixture is washed. Then, 100 μL of streptavidin-conjugated […] (150 pM; Quanterix) is added, followed by a 5 minutes 15 second (7-cadence) incubation and wash. The mixture will then be placed on a Simoa HD-1 instrument. Prior to reading, 25 μL Resorufin (3-D-galactopyranoside (Quanterix) is added. The calibrator curve is constructed using the standard from the NFL ELISA (NF-light, UmanDiagnostics). Samples and calibrators are measured in duplicates.
Serum Nfl levels were investigated in longitudinal blood samples. The aims of this study include: • to explore the predictive value of blood NFL concentrations in patients treated with CHS-131 (also known as INT-131), • to determine the kinetics of the response to CHS-131, • to analyze NFL as a marker for the effectiveness of CHS-131 in relapsing-remitting multiple sclerosis (RRMS) patients, • to assess the value of NFL concentrations in comparing the effectiveness of CHS-131 with the effectiveness of placebo, • to correlate blood NFL with radiological and clinical outcome parameters (such as magnetic resonance imaging (MRI) (Gd+ lesion counts, T2 lesion volume), annualized relapse rate (ARR), brain atrophy and correlation with expanded disability status scale (EDSS), • to examine the prognostic value of NFL concentrations by stratification of patients related to disease activity, • to determine the risk of relapse or risk of disease progression, and • to evaluate NFL concentrations as a retreatment predictive biomarker.
All patients receiving CHS-131 were orally adminisntered 1 mg or 3 mg CHS-131 daily. All control patients were orally administered a placebo tablet once a day. All patients enrolled in the study were treatment-naïve RRMS for <3 years.
The human plasma samples used for the analysis were coded and are not individually identifiable because neither the investigator nor any other individuals associated with the investigation or the sponsor can link the specimen to the subject from whom the specimen was collected, either directly or indirectly through coding systems.
The concentration of NFL […] in subject administered placebo, 1 mg daily CHS-131, and 3 mg daily CHS-131 are reported in Tables 1, 2, and 3, respectively.

[3] = 1 mg daily CHS-131 oral, Wk0, RRMS patients
[4] = 1 mg daily CHS-131 oral, Wk12, RRMS patients
[5] = 1 mg daily CHS-131 oral, Wk24, RRMS patients
[6] = 1 mg daily CHS-131 oral, Wk48, RRMS patients
[7] = 3 mg daily CHS-131 oral, Wk0, RRMS patients
[8] = 3 mg daily CHS-131 oral, Wk12, RRMS patients
[9] = 3 mg daily CHS-131 oral, Wk24, RRMS patients
[10] = 3 mg daily CHS-131 oral, Wk48, RRMS patients

## O=S(=O)(Nc1cc(Cl)c(Oc2cnc3ccccc3c2)c(Cl)c1)c1ccc(Cl)cc1Cl [CHS-131]
[1]; FIG. 1
  new CE lesions in subjects with lower average levels of NFL: fewer new CE lesions
[1]; FIG. 2
  new or enlarging T2 lesions in subjects with lower average levels of NFL: fewer new or enlarging T2 lesions
[1]; FIG. 3
  EDSS in subjects with lower levels of NFL (trend): lower EDSS
[2]; [3]
  concentration of NFL, Max: 29 pg/mL
  concentration of NFL, Mean: 20.8 pg/mL
  concentration of NFL, Median: 19.4 pg/mL
  concentration of NFL, Min: 13.3 pg/mL
  concentration of NFL, Q1: 19.3 pg/mL
  concentration of NFL, Q3: 22.8 pg/mL
[2]; [4]
  concentration of NFL, Max: 160 pg/mL
  concentration of NFL, Mean: 27.6 pg/mL
  concentration of NFL, Median: 17.9 pg/mL
  concentration of NFL, Min: 2.1 pg/mL
  concentration of NFL, Q1: 11.7 pg/mL
  concentration of NFL, Q3: 32.2 pg/mL
[2]; [5]
  concentration of NFL, Max: 65.5 pg/mL
  concentration of NFL, Mean: 22.3 pg/mL
  concentration of NFL, Median: 17 pg/mL
  concentration of NFL, Min: 3.2 pg/mL
  concentration of NFL, Q1: 11.8 pg/mL
  concentration of NFL, Q3: 31.5 pg/mL
[2]; [6]
  concentration of NFL, Max: 340 pg/mL
  concentration of NFL, Mean: 27.6 pg/mL
  concentration of NFL, Median: 17.5 pg/mL
  concentration of NFL, Min: 2.6 pg/mL
  concentration of NFL, Q1: 10.1 pg/mL
  concentration of NFL, Q3: 24.2 pg/mL
[2]; [7]
  concentration of NFL, Max: 73.7 pg/mL
  concentration of NFL, Mean: 29.9 pg/mL
  concentration of NFL, Median: 19.6 pg/mL
  concentration of NFL, Min: 11.7 pg/mL
  concentration of NFL, Q1: 11.8 pg/mL
  concentration of NFL, Q3: 48.1 pg/mL
[2]; [8]
  concentration of NFL, Max: 117 pg/mL
  concentration of NFL, Mean: 23.2 pg/mL
  concentration of NFL, Median: 16.4 pg/mL
  concentration of NFL, Min: 4.9 pg/mL
  concentration of NFL, Q1: 12.2 pg/mL
  concentration of NFL, Q3: 28.1 pg/mL
[2]; [9]
  concentration of NFL, Max: 74.9 pg/mL
  concentration of NFL, Mean: 20.4 pg/mL
  concentration of NFL, Median: 15.9 pg/mL
  concentration of NFL, Min: 5.8 pg/mL
  concentration of NFL, Q1: 10.4 pg/mL
  concentration of NFL, Q3: 26.6 pg/mL
[2]; [10]
  concentration of NFL, Max: 119 pg/mL
  concentration of NFL, Mean: 19.3 pg/mL
  concentration of NFL, Median: 14.3 pg/mL
  concentration of NFL, Min: 4.9 pg/mL
  concentration of NFL, Q1: 9 pg/mL
  concentration of NFL, Q3: 20.4 pg/mL
